Experimental data from PubChem BioAssay AID328 (DTP/NCI, 2004).
Values joined by “and” are separate entries in the source; they are usually repeats but may differ in a detail not shown here. Equal entries are not always repeated. Inconclusive results and toxic doses are left out. How the source made its calls: active means survival T/C of 150% or more; inactive means T/C below 125% in these data.

System: BDF1 mice, P388 leukemia ip, median survival T/C
Assay: NCI In Vivo Anticancer Drug Screen. Data for tumor model P388 Leukemia (intraperitoneal) in B6D2F1 (BDF1) mice
Conditions: endpoint: median survival time, higher = longer survival
In short: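 Vehicle-dosed animals serve as the reference; survival of compound-dosed, tumour-implanted mice is divided by it.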

[1] = dose: 25.0 mg/kg/injection, schedule: Q04DX003 (ip), vehicle: water
[2] = dose: 50.0 mg/kg/injection, schedule: Q01DX009 (ip), vehicle: saline
[3] = dose: 50.0 mg/kg/injection, schedule: Q04DX003 (ip), vehicle: water
[4] = dose: 100.0 mg/kg/injection, schedule: Q01DX009 (ip), vehicle: saline
[5] = dose: 100.0 mg/kg/injection, schedule: Q04DX003 (ip), vehicle: saline
[6] = dose: 100.0 mg/kg/injection, schedule: Q04DX003 (ip), vehicle: water

Measured: T/C

COc1cc2cc[n+](C)cc2cc1OC
inactive: dose: 6.25 mg/kg/injection, schedule: Q04DX003 (ip), vehicle: water 94 % of control | dose: 12.5 mg/kg/injection, schedule: Q04DX003 (ip), vehicle: water 94 % of control | dose: 25.0 mg/kg/injection, schedule: Q04DX003 (ip), vehicle: saline 100 % of control | [1] 107 % of control | [2] 100 % of control | dose: 50.0 mg/kg/injection, schedule: Q04DX003 (ip), vehicle: saline 86 % of control and 104 % of control | [3] 111 % of control | [4] 100 % of control | [5] 88 % of control and 90 % of control and 113 % of control | [6] 111 % of control

COc1cc2oc(-c3ccc(O)cc3O)c(CC=C(C)C)c(=O)c2c(O)c1/C=C/C(C)C
inactive: dose: 4.1 mg/kg/injection, schedule: Q01DX009 (ip), vehicle: Klucel (hydroxypropylcellulose) (HPC) 115 % of control | dose: 6.25 mg/kg/injection, schedule: Q01DX009 (ip), vehicle: Klucel (hydroxypropylcellulose) (HPC) 106 % of control | dose: 9.3 mg/kg/injection, schedule: Q01DX009 (ip), vehicle: Klucel (hydroxypropylcellulose) (HPC) 110 % of control | dose: 12.5 mg/kg/injection, schedule: Q01DX009 (ip), vehicle: Klucel (hydroxypropylcellulose) (HPC) 116 % of control | dose: 25.0 mg/kg/injection, schedule: Q01DX009 (ip), vehicle: Klucel (hydroxypropylcellulose) (HPC) 98 % of control | dose: 50.0 mg/kg/injection, schedule: Q01DX009 (ip), vehicle: Klucel (hydroxypropylcellulose) (HPC) 91 % of control | dose: 100.0 mg/kg/injection, schedule: Q01DX009 (ip), vehicle: Klucel (hydroxypropylcellulose) (HPC) 94 % of control

Nc1nc(Cc2ccccc2)c(CCCNc2ccccc2)c(=O)[nH]1
inactive: dose: 6.25 mg/kg/injection, schedule: Q01DX009 (ip), vehicle: saline with Tween-80 107 % of control | dose: 25.0 mg/kg/injection, schedule: Q01DX009 (ip), vehicle: saline with Tween-80 98 % of control | dose: 50.0 mg/kg/injection, schedule: Q01DX009 (ip), vehicle: saline with Tween-80 96 % of control

C1CC[CH]([Sn]([CH]2CCCCC2)[CH]2CCCCC2)CC1
inactive: dose: 0.78 mg/kg/injection, schedule: Q01DX009 (ip), vehicle: saline with Tween-80 98 % of control | dose: 1.56 mg/kg/injection, schedule: Q01DX009 (ip), vehicle: saline with Tween-80 89 % of control

CC(CS(=O)(=O)O)NC(CO)(CO)CO (stereo unspecified)
inactive: [4] 87 % of control | [5] 100 % of control | dose: 200.0 mg/kg/injection, schedule: Q04DX003 (ip), vehicle: saline 109 % of control | dose: 400.0 mg/kg/injection, schedule: Q01DX009 (ip), vehicle: saline 100 % of control | dose: 400.0 mg/kg/injection, schedule: Q04DX003 (ip), vehicle: saline 90 % of control

CC(Cc1ccccc1)CC(C(=O)O)C(=O)O (stereo unspecified)
inactive: dose: 100.0 mg/kg/injection, schedule: Q04DX003 (ip), vehicle: saline with Tween-80 100 % of control | dose: 200.0 mg/kg/injection, schedule: Q04DX003 (ip), vehicle: saline with Tween-80 99 % of control

CCC1OC(=O)C(C)C(OC2CC(C)(O)C(O)C(C)O2)C(C)C(O)C(C)(O)CC(C)C(=O)C(C)C(O)C1C (stereo unspecified)
inactive: [4] 100 % of control | dose: 200.0 mg/kg/injection, schedule: Q01DX009 (ip), vehicle: saline 94 % of control

O=S(=O)(Nc1ccc(C(F)(F)F)cc1)c1ccc(C(F)(F)F)cc1
inactive: dose: 50.0 mg/kg/injection, schedule: Q04DX003 (ip), vehicle: Klucel (hydroxypropylcellulose) (HPC) 90 % of control | dose: 100.0 mg/kg/injection, schedule: Q04DX003 (ip), vehicle: Klucel (hydroxypropylcellulose) (HPC) 90 % of control

CCCCCCCCCCCCS(=O)CC(C)O (stereo unspecified)
inactive: dose: 100.0 mg/kg/injection, schedule: Q01DX009 (ip), vehicle: other 123 % of control

COc1ccc(CN(C)CCN(C)CCN(C)Cc2ccc(OC)cc2)cc1
inactive: dose: 3.12 mg/kg/injection, schedule: Q01DX009 (ip), vehicle: water 92 % of control | dose: 6.25 mg/kg/injection, schedule: Q01DX009 (ip), vehicle: saline 102 % of control | dose: 6.25 mg/kg/injection, schedule: Q01DX009 (ip), vehicle: water 108 % of control | dose: 12.5 mg/kg/injection, schedule: Q01DX009 (ip), vehicle: saline 103 % of control | dose: 12.5 mg/kg/injection, schedule: Q01DX009 (ip), vehicle: water 99 % of control | dose: 25.0 mg/kg/injection, schedule: Q01DX009 (ip), vehicle: saline 93 % of control | dose: 25.0 mg/kg/injection, schedule: Q01DX009 (ip), vehicle: water 100 % of control | [1] 90 % of control | [2] 86 % of control | dose: 50.0 mg/kg/injection, schedule: Q01DX009 (ip), vehicle: water 106 % of control | [3] 99 % of control | [6] 96 % of control
